IC50 data for 26 compounds are collected here from US20250049812A1, “Compounds that Inhibit Necroptosis and Their Preparation Methods” (SHANGHAI INSTITUTE OF ORGANIC CHEMISTRY, CHINESE ACADEMY OF …, priority 2021, published 2025).

The structures appear in SMILES notation. Bounds are passed on as bounds.

One may read the IC50 as the concentration that gives 50% inhibition.

The test system of this assay is Jurkat FADD (−/−) Cells. Description: TNF-α induced necroptosis of Jurkat FADD-deficient cells (CellTiter-Glo cell survival). It is filed as cell-based, human. Conditions: Homo sapiens; TNF-α induced necroptosis, Jurkat FADD-deficient cells, 13 hours, CellTiter-Glo; read-out: IC50. Put shortly:
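Cells in RPMI 1640 with 10% FBS were pretreated for 1 h at 37 °C with compound (12-point threefold series from 25 μM, or 0.5 μM, in triplicate). They were then stimulated with TNFα added as a 5 ng/mL solution for 13 h. Survival was read by luminescence.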
On the technique in general: ATP-based viability assays read luminescence as a measure of living cells.
For `CCOc1cccnc1-n1cc2c3c(cccc31)N(C)C(=O)C(NC(=O)c1nnc(Cc3ccccc3)[nH]1)C2` (racemic) [T-67, (±)-5-benzyl-N-(6-(3-ethoxypyridin-2-yl)-1-methyl-2-oxy-2,3,4,6-tetrahydro-1H-azacyclo [4,3,2-cd]indol-3-yl)-4H-1,2,4-triazole-3-carboxamide], the IC50 was under 0.01 µM.

Consider `CN1C(=O)C(NC(=O)c2nnc(Cc3ccccc3)[nH]2)Cc2cn(-c3ncccc3S(C)(=O)=O)c3cccc1c23` (racemic) [T-68, (±)-5-benzyl-N-(1-methyl-6-(3-(methylsulfonyl)pyridin-2-yl)-2-oxo-2,3,4,6-tetrahydro-1H-azepine [4,3,2-cd]indol-3-yl)-4H-1,2,4-triazole-3-carboxamide], for which the IC50 was under 0.01 µM. In the case of `CN1C(=O)C(NC(=O)c2nnc(Cc3ccccc3)[nH]2)Cc2cn(-c3ccccn3)c3cccc1c23` (racemic) [T-69, (±)-5-benzyl-N-(1-methyl-2-oxo-6-(pyridin-2-yl)-2,3,4,6-tetrahydro-1H-azacyclo [4,3,2-cd]indol-3-yl)-4H-1,2,4-triazole-3-carboxamide], the IC50 fell in the range of 0.01 to 0.1 µM. Consider `CN1C(=O)C(NC(=O)c2cc(Oc3ccccc3)ccn2)Cc2cn(-c3ncccc3C(F)(F)F)c3cccc1c23` (racemic) [T-70, (±)-N-(1-methyl-2-oxo-6-(3-(trifluoromethyl)pyridin-2-yl)-2,3,4,6-tetrahydro-1H-azacyclo[4,3,2-cd]indol-3-yl)-4-phenoxy Pyridinamide], for which the IC50 is under 0.01 µM. For `CN1C(=O)C(NC(=O)c2nnc(Cc3ccccc3)[nH]2)Cc2cn(-c3ncn(C)n3)c3cccc1c23` (racemic) [T-73, (±)-5-benzyl-N-(1-methyl-6-(1-methyl-1H-1,2,4-triazole-3-yl)-2-oxo-2,3,4,6-tetrahydro-1H-azacyclo [4,3,2-cd]indol-3-yl)-4H-1,2,4-triazole-3-carboxamide] the value was 0.01 to 0.1 µM; for `CN1C(=O)C(NC(=O)c2nnc(Cc3ccccc3)[nH]2)Cc2cn(-c3cncn3C)c3cccc1c23` (racemic) [T-74, (±)-5-benzyl-N-(1-methyl-6-(1-methyl-1H-imidazol-5-yl)-2-oxo-2,3,4,6-tetrahydro-1H-azacyclo [4,3,2-cd]indol-3-yl)-4H-1,2,4-triazole-3-carboxamide], under 0.01 µM; for `CNS(=O)(=O)c1cccnc1-n1cc2c3c(cccc31)N(C)C(=O)C(NC(=O)c1nnc(Cc3ccccc3)[nH]1)C2` (racemic) [T-75, (±)-5-benzyl-N-(1-methyl-6-(3-(N-methylsulfamoyl)pyridin-2-yl)-2-oxo-2,3,4,6-tetrahydro-1H-azacyclo [4,3,2-cd]indol-3-yl)-4H-1,2,4-triazole-3-carboxamide], 0.01 to 0.1 µM.

For `CN1C(=O)C(NC(=O)c2nnc(Cc3ccccc3)[nH]2)Cn2cc(C#N)c3cccc1c32` (racemic) [T-76, (±)-5-benzyl-N-(7-cyano-1-methyl-2-oxo-1,2,3,4-tetrahydro-[1,4]diazepino [3,2,1-hi]indol-3-yl)-4H-1,2,4-triazole-3-carboxamide], the IC50 fell in the range of 0.01 to 0.1 µM. For the compound `CN1C(=O)C(NC(=O)c2nnc(Cc3ccccc3)[nH]2)Cn2cc(-c3ccnc(C(F)(F)F)c3)c3cccc1c32` (racemic) [T-77, (±)-5-benzyl-N-(1-methyl-2-oxo-7-(2-(trifluoromethyl)pyridin-4-yl)-1,2,3,4-tetrahydro-[1,4]diazepino [3,2,1-hi]indol-3-yl)-4H-1,2,4-triazole-3-carboxamide], the IC50 lay in the range of 0.1 to 1 µM. In the case of `CN1C(=O)C(NC(=O)c2nnc(Cc3ccccc3)[nH]2)Cn2cc(Br)c3ccc(Br)c1c32` (racemic) [T-79, (±)-5-benzyl-N-(7,10-dibromo-1-methyl-2-oxo-1,2,3,4-tetrahydro-[1,4]diazepino [3,2,1-hi]indol-3-yl)-4H-1,2,4-triazole-3-carboxamide], the IC50 is over 1 µM. On to `COCc1cccc(-c2cn3c4c(cccc24)N(C)C(=O)C(NC(=O)c2nnc(Cc4ccccc4)[nH]2)C3)c1` (racemic) [T-80, (±)-5-benzyl-N-(7-(3-(methoxymethyl)phenyl)-1-methyl-2-oxo-1,2,3,4-tetrahydro-[1,4]diazepino [3,2,1-hi]indol-3-yl)-4H-1,2,4-triazole-3-carboxamide], for which the IC50 lay within 0.01 to 0.1 µM. On to `CN1C(=O)C(NC(=O)c2ncc(Cc3ccccc3)o2)Cn2cc(-c3ccnn3C)c3cccc1c32` (racemic) [T-83, (±)-5-benzyl-N-(1-methyl-7-(1-methyl-1H-pyrazol-5-yl)-2-oxo-1,2,3,4-tetrahydro-[1,4]diazepino[3,2,1-hi]indol-3-yl)-oxazole-2-carboxamide], for which the IC50 is under 0.01 µM. Consider `CN1C(=O)C(NC(=O)c2nnc(Cc3ccccc3)[nH]2)Cn2cc(-c3ccccc3C(F)(F)F)c3cccc1c32` (racemic) [T-84, (±)-5-benzyl-N-(1-methyl-2-oxo-7-(2-(trifluoromethyl)phenyl)-1,2,3,4-tetrahydro-[1,4]diazepino [3,2,1-hi]indol-3-yl)-4H-1,2,4-triazole-3-carboxamide], for which the IC50 fell in the range of 0.01 to 0.1 µM.

Turning to `COc1cccc(OC)c1-c1cn2c3c(cccc13)N(C)C(=O)C(NC(=O)c1nnc(Cc3ccccc3)[nH]1)C2` (racemic) [T-85, (±)-5-benzyl-N-(7-(2,6-dimethoxyphenyl)-1-methyl-2-oxo-1,2,3,4-tetrahydro-[1,4]diazepino [3,2,1-hi]indol-3-yl)-4H-1,2,4-triazole-3-carboxamide], the concentration for half-maximal inhibition (IC50) was 0.1 to 1 µM.

For `COc1ccccc1-c1cn2c3c(cccc13)N(C)C(=O)C(NC(=O)c1nnc(Cc3ccccc3)[nH]1)C2` (racemic) [T-87, (±)-5-benzyl-N-(7-(2-methoxyphenyl)-1-methyl-2-oxo-1,2,3,4-tetrahydro-[1,4]diazepine [3,2,1-hi]indol-3-yl)-4H-1,2,4-triazole-3-carboxamide], the IC50 was in the range of 0.01 to 0.1 µM. For `CN1C(=O)C(NC(=O)c2nnc(Cc3ccccc3)[nH]2)Cn2cc(-c3cnoc3)c3cccc1c32` (racemic) [T-88, (±)-5-benzyl-N-(7-(isoxazol-4-yl)-1-methyl-2-oxo-1,2,3,4-tetrahydro-[1,4]diazepine [3,2,1-hi]indol-3-yl)-4H-1,2,4-triazole-3-carboxamide] the value was 0.01 to 0.1 µM. As to `CN1C(=O)C(N2CCc3c(nn(Cc4ccccc4)c3Cl)C2=O)Cn2cc(-c3ccnn3C)c3cccc1c32` (racemic) [T-89, (±)-3-(2-benzyl-3-chloro-7-oxo-2,4,5,7-tetrahydro-6H-pyrazole [3,4-c]pyridin-6-yl)-1-methyl-7-(1-methyl-1H-pyrazol-5-yl)-3,4-dihydro-[1,4]diazepine[3,2,1-hi]indole-2(1H)-one], the IC50 was 0.01 to 0.1 µM. Regarding `CC(C)n1nccc1-c1cn2c3c(cccc13)N(C)C(=O)C(NC(=O)c1nnc(Cc3ccccc3)[nH]1)C2` (racemic) [T-90, (±)-5-benzyl-N-(7-(1-isopropyl-1H-pyrazol-5-yl)-1-methyl-2-oxo-1,2,3,4-tetrahydro-1,4-diazepine [3,2,1-hi]indol-3-yl)-4H-1,2,4-triazole-3-carboxamide], the IC50 was under 0.01 µM. For the compound `Cc1ccsc1-c1cn2c3c(cccc13)N(C)C(=O)C(NC(=O)c1nnc(Cc3ccccc3)[nH]1)C2` (racemic) [T-91, (±)-5-benzyl-N-(1-methyl-7-(3-methylthiophen-2-yl)-2-oxo-1,2,3,4-tetrahydro-[1,4]diazepine [3,2,1-hi]indol-3-yl)-4H-1,2,4-triazole-3-carboxamide], the IC50 lay in the range of 0.01 to 0.1 µM. Turning to `CN1C(=O)C(NC(=O)c2nnc(Cc3ccccc3)[nH]2)Cc2cn(-c3ncccc3CC(F)(F)F)c3cccc1c23` (racemic) [T-97, (±)-5-benzyl-N-(1-methyl-2-oxo-6-(3-(2,2,2-trifluoroethyl)pyridin-2-yl)-2,3,4,6-tetrahydro-1H-azacyclo [4,3,2-cd]indol-3-yl)-4H-1,2,4-triazole-3-carboxamide], the IC50 is under 0.01 µM. For `CN1C(=O)C(NC(=O)c2nnc(Cc3ccccc3)[nH]2)Cc2cn(-c3nccc4ccccc34)c3cccc1c23` (racemic) [T-99, (±)-5-benzyl-N-(6-(isoquinolin-1-yl)-1-methyl-2-oxo-2,3,4,6-tetrahydro-1H-aza [4,3,2-cd]indol-3-yl)-4H-1,2,4-triazole-3-carboxamide], the IC50 was under 0.01 µM.

In the case of `COC(=O)c1cc(-n2cc3c4c(cccc42)N(C)C(=O)C(NC(=O)c2nnc(Cc4ccccc4)[nH]2)C3)cn1C` (racemic) [T-100, (±)-methyl4-(3-(5-benzyl-4H-1,2,4-triazole-3-carboxamide)-1-methyl-2-oxo-1,2,3,4-tetrahydro-6H-azacyclo [4,3,2-cd]indol-6-yl)-1-methyl-1H-pyrrole-2-carboxylate], the IC50 was 0.01 to 0.1 µM.

As for `CN1C(=O)C(NC(=O)c2nnc(Cc3ccccc3)[nH]2)Cc2cn(-c3cccnc3)c3cccc1c23` (racemic) [T-101, (±)-5-benzyl-N-(1-methyl-2-oxo-6-(pyridin-3-yl)-2,3,4,6-tetrahydro-1H-azacyclo [4,3,2-cd]indol-3-yl)-4H-1,2,4-triazole-3-carboxamide], the IC50 is 0.01 to 0.1 µM.

Consider `CN1C(=O)C(NC(=O)c2nnc(Cc3ccccc3)[nH]2)Cc2cn(-c3ccncc3)c3cccc1c23` (racemic) [T-102, (±)-5-benzyl-N-(1-methyl-2-oxo-6-(pyridin-4-yl)-2,3,4,6-tetrahydro-1H-azacyclo [4,3,2-cd]indol-3-yl)-4H-1,2,4-triazole-3-carboxamide], for which the IC50 lay within 0.01 to 0.1 µM. Consider `CCOC(=O)c1cccnc1-n1cc2c3c(cccc31)N(C)C(=O)C(NC(=O)c1nnc(Cc3ccccc3)[nH]1)C2` (racemic) [T-103], for which the IC50 is 0.01 to 0.1 µM. With `CC(C)OC(=O)c1cccnc1-n1cc2c3c(cccc31)N(C)C(=O)C(NC(=O)c1nnc(Cc3ccccc3)[nH]1)C2` (racemic) [T-104, (±)-2-(3-(5-benzyl-4H-1,2,4-triazole-3-carboxamide)-1-methyl-2-oxo-1,2,3,4-tetrahydro-6H-azacyclo [4,3,2-cd]indol-6-yl)isopropyl Nicotinate], the IC50 lay in the range of 0.01 to 0.1 µM.
